Reference: patent publication US20230035422A1, “METHODS FOR TREATING DISEASES BY TARGETING ONCOGENIC LIPIDS” (THE TRUSTEES OF COLUMBIA UNIVERSITY IN THE CITY OF NEW YORK, priority 2020, published 2023)

Key:
[1] = system: breast cancer cell lines (high-ADCK3 vs low-ADCK3); assay: Breast cancer cell line panel viability with ferroptosis inducers (CellTiter-Glo); format: cell-based; settings: 2-fold dilution series, 72 hours
Experimental: Breast cancer cell lines were treated with ferroptosis inducers FIN56 (FIG. 2D) or RSL3 (FIG. 2E) in 2-fold dilution series for 72 hours. Cell viability was measured with CellTiter-Glo®. Ferroptosis-sensitive breast cancer cells are categorized as ‘high-ADCK3’ expressing (orange), while cells that are less sensitive to ferroptosis induction were the ones with ‘low-ADCK3’ (green).
A panel of 10 breast cancer cell lines was selected form the Broad Institute Cancer Cell Line Encyclopedia database (CCLE; https://portals.broadinsitute.org/ccle),based on their ADCK3 copy number and mRNA expression levels, to have a good representation of ADCK3-amplified cells (termed here as ‘high-ADCK3’), as well as a control group expressing normal levels of ADCK3 (termed here as ‘low-ADCK3’; FIG. 2A). To confirm a correlation between high ADCK3 gene/transcript expression and protein expression, ADCK3 levels were measured by western blot (FIG. 2B). Cells were divided into high-ADCK3 (orange in FIGS. 2A-2E) and low-ADCK3 (green in FIGS. 2A-2E) according to the protein expression level. […] High ADCK3 protein levels correlated with high CoQ10 abundance, measured by LC-MS (FIG. 2C). […]

[2] = system: SKBR3 cells overexpressing ADCK3-FLAG; assay: Ferroptosis induction in SKBR3 cells overexpressing ADCK3-FLAG (CellTiter-Glo); format: cell-based; settings: RSL3 10 or 20 nM, FIN56 78 or 156 nM, 48 h
Experimental: Viability was measured with CellTiter-Glo®.
ADCK3-FLAG was stably overexpressed in SKBR3 cells through retroviral infection. First, proper localization of the overexpressed protein to the mitochondria was validated by fluorescent microscopy. Similarly to the localization pattern of endogenous ADCK3 to the mitochondria, overexpressed ADCK3-FLAG co-localized with a MitoTracker fluorescent probe (FIG. 5A).

[3] = system: ADCK3 knockdown/knockout SKBR3 cells; assay: Ferroptosis induction in ADCK3 knockdown/knockout SKBR3 cells (CellTiter-Glo); format: cell-based; settings: for rescue of RSL3-induced death in siRNA ADCK3 knockdown cells: SKBR3, siRNA ADCK3, RSL3 48 h
Experimental: At 48 h after transfection, cells were treated with RSL3 in 2-fold dilution series for 48 h, in combination with ferrostatin-1 or idebenone. Viability was measured with CellTiter-Glo®. […] Stable CRISPR cells were treated with FIN56 in 2-fold dilution series in combination with ferrostatin-1, for 48 h. Viability was measured with CellTiter-Glo®. […] (grey) cells were treated with RSL3 or FIN56 in 2-fold dilution series in combination with 2 μM ferrostatin-1 for 48 h. Viability was measured with CellTiter-Glo®.

SKBR3 cells [4] = assay: SKBR3 cell death / viability on SGC-GAK-1 treatment; format: cell-based
Text: (§1) Thus, it was concluded that SGC-GAK-1 induces ferroptosis in ADCK3-amplified cells, perhaps by reducing the levels of ADCK3 and CoQ10.

ADCK3 [5] = assay: Western blot of ADCK3 protein levels in SKBR3 cells; format: cell-based; settings: SKBR3, 50 nM SGC-GAK-1, 48 hours
Experimental: SKBR3 cells were treated with 50 nM SGC-GAK-1 or vehicle, for 48 h, and analyzed by western blot for ADCK3 and GAPDH levels.
as §1

SKBR3 cells [6] = assay: Cellular lipid-ROS by C11-BODIPY flow cytometry; format: cell-based
Text: as §1

CoQ10 = CoQ10 abundance in SKBR3 cells by LC/MS; format: cell-based; settings: SKBR3, 50 nM SGC-GAK-1, 48 hours
Text: CoQ10 abundance in SKBR3 cells treated as in FIG. 6A, measured by LC/MS.
as §1

ADCK3 [7] = target: ADCK3 (Homo sapiens, UniProt Q8NI60); settings: reported, Asquith et al. 2019; cited from earlier work
[8] = system: triple-negative breast cancer; settings: cited from earlier work

Chain of ADCK3 (Homo sapiens, UniProt Q8NI60) (Q8NI60 163-647): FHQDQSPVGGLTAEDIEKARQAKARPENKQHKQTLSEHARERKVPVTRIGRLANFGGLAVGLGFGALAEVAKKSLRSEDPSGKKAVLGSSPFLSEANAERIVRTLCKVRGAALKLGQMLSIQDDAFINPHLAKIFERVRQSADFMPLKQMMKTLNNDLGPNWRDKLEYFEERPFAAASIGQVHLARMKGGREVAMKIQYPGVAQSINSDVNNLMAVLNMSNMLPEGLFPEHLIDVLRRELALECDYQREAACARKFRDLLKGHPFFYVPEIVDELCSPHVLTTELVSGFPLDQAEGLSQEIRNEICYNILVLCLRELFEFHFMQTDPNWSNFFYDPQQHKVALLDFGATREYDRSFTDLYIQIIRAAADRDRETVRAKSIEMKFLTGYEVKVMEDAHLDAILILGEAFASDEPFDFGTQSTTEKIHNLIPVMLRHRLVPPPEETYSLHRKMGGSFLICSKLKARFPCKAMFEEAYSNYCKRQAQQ

Question: Which results are given for `O=S(=O)(NC1CCCCC1)c1ccc2c(c1)C(=NO)c1cc(S(=O)(=O)NC3CCCCC3)ccc1-2` [FIN56]?
Answer: sensitivity to ferroptosis induction of cells with amplified ADCK3 expression [1]: distinct higher sensitivity; cytotoxic effect in cells overexpressing ADCK3 compared to control [2]: statistically significant reduction in cytotoxic effect

Question: Which results are given for `COC(=O)c1ccc([C@@H]2c3[nH]c4ccccc4c3C[C@@H](C(=O)OC)N2C(=O)CCl)cc1` [RSL3]?
Answer: sensitivity to ferroptosis induction of cells with amplified ADCK3 expression [1]: distinct higher sensitivity; sensitivity of siRNA ADCK3 knockdown cells to ferroptosis inducer ([3]; SKBR3, siRNA ADCK3 vs non-targeting control, 48 h treatment): increased the sensitivity; cytotoxic effect in cells overexpressing ADCK3 compared to control [2]: statistically significant reduction in cytotoxic effect

Question: Which “sensitivity of SKBR3 cells to RSL3-mediated ferroptotic death” value (SKBR3 cells [4]; SGC-GAK-1 combined with RSL3) does the source give for `COc1cc(Nc2ccnc3ccc(Br)cc23)cc(OC)c1OC` [SGC-GAK-1] here?
Answer: Its value is “further potentiated SKBR3 cells to RSL3-mediated ferroptotic death”.

Question: And the “cell death induced by SGC-GAK-1 alone” value (SKBR3 cells [4]; SKBR3 cells, with or without ferrostatin-1)?
Answer: Its value is “induced cell death that was rescued by the ferroptosis inhibitor ferrostatin-1”.

Question: What about the ADCK3 protein levels (ADCK3 [5]) of the same molecule?
Answer: The ADCK3 protein levels was “marked reduction in ADCK3 protein levels”.

Question: And the lipid-ROS (SKBR3 cells [6]; SKBR3, 50 nM SGC-GAK-1, 48 h, C11-BODIPY)?
Answer: Its lipid-ROS is “increase in lipid-ROS”.

Question: What about the CoQ10 levels (CoQ10) of the same molecule?
Answer: Its CoQ10 levels is “reduced CoQ10 levels”.

Question: What about the “inhibitory activity against ADCK3” value (ADCK3 [7]) of the same molecule?
Answer: The value was “nanomolar inhibitory activity”.

Question: Which “rescue of SGC-GAK-1-induced ferroptotic death” value (SKBR3 cells [4]; SKBR3, 1 µM ferrostatin-1) does the source give for `CCOC(=O)c1ccc(NC2CCCCC2)c(N)c1` [ferrostatin-1] here?
Answer: The value was “rescued”.

Question: And the “rescue of death and sensitization in CRISPR/shRNA ADCK3 knockout cells” value ([3]; SKBR3, RSL3 or FIN56 with ferrostatin-1 (2 µM in shRNA cells))?
Answer: Its value is “rescued”.

Question: What about the “rescue of RSL3-induced death in siRNA ADCK3 knockdown cells” value [3] of the same molecule?
Answer: Its value is “rescued”.

Question: And the “rescue of SGC-GAK-1-induced increase in cellular lipid-ROS” value (SKBR3 cells [6]; SKBR3, 2 µM ferrostatin-1)?
Answer: Its value is “rescued”.

Question: For `COC1=C(OC)C(=O)C(CCCCCCCCCCO)=C(C)C1=O` [idebenone], which “rescue of RSL3-induced death in siRNA ADCK3 knockdown cells” value [3] is on record?
Answer: The value was “rescued”.

Question: For “Tecentriq: approved in combination with protein-bound paclitaxel for unresectable triple-negative breast cancer whose tumors express PD-L1”, which “patients who experienced adverse reactions” value ([8]; in vivo) is on record?
Answer: Its value is “greater than 20%”.

Question: What about the median progression-free survival ([8]; with protein-bound paclitaxel, PD-L1 expressing unresectable triple-negative breast cancer) of the same molecule?
Answer: Its median progression-free survival is 7.4 months.

Question: And the “extension of median progression-free survival” value ([8]; with protein-bound paclitaxel, from 4.8 to 7.4)?
Answer: Its value is 2.6 months.
